According to the NIST ThermoML archive (doi:10.1016/j.jct.2018.01.019):

Experiment: molar heat capacity at constant pressure
Details: 101.33 kPa, Small sample (50 mg) DSC

O=[Si]=O [silicon dioxide]
Details	molar heat capacity at constant pressure [J/K/mol]
794.62 K, Crystal 2	71.82
794.79 K, Crystal 2	71.62
794.95 K, Crystal 2	71.49
795.12 K, Crystal 2	71.46
795.29 K, Crystal 2	71.47
795.45 K, Crystal 2	71.5
795.62 K, Crystal 2	71.77
795.78 K, Crystal 2	71.9
795.95 K, Crystal 2	71.83
796.12 K, Crystal 2	71.66
796.29 K, Crystal 2	71.81
796.46 K, Crystal 2	72.04
796.62 K, Crystal 2	72.01
796.79 K, Crystal 2	71.86
796.96 K, Crystal 2	71.68
797.12 K, Crystal 2	71.48
797.29 K, Crystal 2	71.6
797.46 K, Crystal 2	71.73
797.62 K, Crystal 2	71.68
797.79 K, Crystal 2	71.65
797.96 K, Crystal 2	71.81
798.13 K, Crystal 2	71.82
798.29 K, Crystal 2	71.7
798.46 K, Crystal 2	71.81
798.62 K, Crystal 2	71.8
798.79 K, Crystal 2	71.9
798.96 K, Crystal 2	72.09
799.12 K, Crystal 2	72
799.29 K, Crystal 2	71.85
799.46 K, Crystal 2	71.85
799.62 K, Crystal 2	71.85
799.79 K, Crystal 2	71.96
799.96 K, Crystal 2	72.13
800.12 K, Crystal 2	72.26
800.29 K, Crystal 2	72.07
800.46 K, Crystal 2	71.86
800.63 K, Crystal 2	72
800.79 K, Crystal 2	72.09
800.96 K, Crystal 2	72.12
801.12 K, Crystal 2	72.16
801.29 K, Crystal 2	71.98
801.46 K, Crystal 2	71.96
801.63 K, Crystal 2	71.86
801.79 K, Crystal 2	71.9
801.96 K, Crystal 2	71.86
802.12 K, Crystal 2	71.92
802.29 K, Crystal 2	71.92
802.46 K, Crystal 2	72.04
802.62 K, Crystal 2	72.2
802.79 K, Crystal 2	72.1
802.96 K, Crystal 2	71.91
803.12 K, Crystal 2	71.68
803.29 K, Crystal 2	71.76
803.46 K, Crystal 2	71.76
803.63 K, Crystal 2	71.8
803.79 K, Crystal 2	72.11
803.96 K, Crystal 2	72.29
804.13 K, Crystal 2	72.1
804.29 K, Crystal 2	71.93
804.46 K, Crystal 2	71.94
804.62 K, Crystal 2	71.92
804.79 K, Crystal 2	71.93
804.96 K, Crystal 2	72.09
805.13 K, Crystal 2	72.17
805.29 K, Crystal 2	72.03
805.46 K, Crystal 2	72.03
805.63 K, Crystal 2	72
805.79 K, Crystal 2	72.07
805.96 K, Crystal 2	72.1
806.13 K, Crystal 2	72.19
806.29 K, Crystal 2	72.25
806.46 K, Crystal 2	72.37
806.63 K, Crystal 2	72.33
806.79 K, Crystal 2	72.24
806.96 K, Crystal 2	72.08
807.13 K, Crystal 2	71.96
807.3 K, Crystal 2	71.9
807.47 K, Crystal 2	72.16
807.63 K, Crystal 2	72.29
807.8 K, Crystal 2	72.39
807.97 K, Crystal 2	72.54
808.13 K, Crystal 2	72.48
808.3 K, Crystal 2	72.36
808.47 K, Crystal 2	72.31
808.64 K, Crystal 2	72.39
808.81 K, Crystal 2	72.34
808.97 K, Crystal 2	72.47
809.14 K, Crystal 2	72.61
809.3 K, Crystal 2	72.59
809.47 K, Crystal 2	72.53
809.64 K, Crystal 2	72.6
809.8 K, Crystal 2	72.59
809.97 K, Crystal 2	72.54
855 K, Crystal 1	69.38
855.17 K, Crystal 1	69.28
855.33 K, Crystal 1	69.26
855.5 K, Crystal 1	69.13
855.67 K, Crystal 1	69.16
855.83 K, Crystal 1	69.22
856 K, Crystal 1	69.21
856.16 K, Crystal 1	69.11
856.33 K, Crystal 1	69.06
856.5 K, Crystal 1	68.99
856.66 K, Crystal 1	68.93
856.83 K, Crystal 1	68.69
857 K, Crystal 1	68.5
857.17 K, Crystal 1	68.55
857.34 K, Crystal 1	68.66
857.51 K, Crystal 1	68.7
857.68 K, Crystal 1	68.71
857.84 K, Crystal 1	68.75
858.01 K, Crystal 1	68.66
858.17 K, Crystal 1	68.56
858.34 K, Crystal 1	68.6
858.51 K, Crystal 1	68.58
858.68 K, Crystal 1	68.63
858.84 K, Crystal 1	68.51
859.01 K, Crystal 1	68.34
859.18 K, Crystal 1	68.29
859.34 K, Crystal 1	68.29
859.51 K, Crystal 1	68.3
859.68 K, Crystal 1	68.35
859.84 K, Crystal 1	68.21
860.01 K, Crystal 1	68.03
860.18 K, Crystal 1	68.14
860.34 K, Crystal 1	68.2
860.51 K, Crystal 1	68.18
860.67 K, Crystal 1	68.22
860.84 K, Crystal 1	68.32
861.01 K, Crystal 1	68.41
861.17 K, Crystal 1	68.37
861.34 K, Crystal 1	68.49
861.51 K, Crystal 1	68.55
861.67 K, Crystal 1	68.37
861.84 K, Crystal 1	68.37
862.01 K, Crystal 1	68.4
862.18 K, Crystal 1	68.4
862.34 K, Crystal 1	68.53
862.51 K, Crystal 1	68.5
862.68 K, Crystal 1	68.45
862.84 K, Crystal 1	68.5
863.01 K, Crystal 1	68.42
863.18 K, Crystal 1	68.35
863.35 K, Crystal 1	68.3
863.51 K, Crystal 1	68.21
863.68 K, Crystal 1	68.19
863.85 K, Crystal 1	68.28
864.01 K, Crystal 1	68.44
864.18 K, Crystal 1	68.48
864.34 K, Crystal 1	68.4
864.51 K, Crystal 1	68.29
864.68 K, Crystal 1	68.37
864.84 K, Crystal 1	68.59
865.01 K, Crystal 1	68.52
865.18 K, Crystal 1	68.35
865.34 K, Crystal 1	68.39
865.5 K, Crystal 1	68.4
865.67 K, Crystal 1	68.46
865.84 K, Crystal 1	68.59
866.01 K, Crystal 1	68.64
866.18 K, Crystal 1	68.69
866.35 K, Crystal 1	68.59
866.51 K, Crystal 1	68.39
866.67 K, Crystal 1	68.35
866.84 K, Crystal 1	68.26
867.01 K, Crystal 1	68.21
867.17 K, Crystal 1	68.25
867.34 K, Crystal 1	68.38
867.51 K, Crystal 1	68.37
867.67 K, Crystal 1	68.45
867.84 K, Crystal 1	68.49
868.01 K, Crystal 1	68.4
868.18 K, Crystal 1	68.35
868.34 K, Crystal 1	68.32
868.51 K, Crystal 1	68.4
868.68 K, Crystal 1	68.45
868.85 K, Crystal 1	68.49
869.01 K, Crystal 1	68.43
